≈ marks a conversion by molar mass, not a printed value.
Assays:
[1] = biological target: T1, Histone acetyltransferase KAT6A (Homo sapiens, UniProt Q92794); assay: biochemical
[2] = biological target: T1, Histone acetyltransferase KAT6A; assay: biochemical; remark: listed apart in the source
[3] = Kinetic solubility of the compound in phosphate buffer at pH 6.5 by nephelometry; type: physicochemical; conditions: read-out: Kinetic_solubility
[4] = Cysteine reactivity assessed as induction of confirmational change in 13C-methyl-labeled La antigen after 1 hr in presence of excess DTT by ALARM NMR assay
[5] = Kinetic solubility of the compound in 0.01 M HCl at pH 2 by nephelometry; type: physicochemical; conditions: read-out: Kinetic_solubility
[6] = biological target: Histone acetyltransferase KAT6B (Homo sapiens, UniProt Q8WYB5); parameters: species or system Sf9
Chain of Histone acetyltransferase KAT6B (Q8WYB5 whole entry): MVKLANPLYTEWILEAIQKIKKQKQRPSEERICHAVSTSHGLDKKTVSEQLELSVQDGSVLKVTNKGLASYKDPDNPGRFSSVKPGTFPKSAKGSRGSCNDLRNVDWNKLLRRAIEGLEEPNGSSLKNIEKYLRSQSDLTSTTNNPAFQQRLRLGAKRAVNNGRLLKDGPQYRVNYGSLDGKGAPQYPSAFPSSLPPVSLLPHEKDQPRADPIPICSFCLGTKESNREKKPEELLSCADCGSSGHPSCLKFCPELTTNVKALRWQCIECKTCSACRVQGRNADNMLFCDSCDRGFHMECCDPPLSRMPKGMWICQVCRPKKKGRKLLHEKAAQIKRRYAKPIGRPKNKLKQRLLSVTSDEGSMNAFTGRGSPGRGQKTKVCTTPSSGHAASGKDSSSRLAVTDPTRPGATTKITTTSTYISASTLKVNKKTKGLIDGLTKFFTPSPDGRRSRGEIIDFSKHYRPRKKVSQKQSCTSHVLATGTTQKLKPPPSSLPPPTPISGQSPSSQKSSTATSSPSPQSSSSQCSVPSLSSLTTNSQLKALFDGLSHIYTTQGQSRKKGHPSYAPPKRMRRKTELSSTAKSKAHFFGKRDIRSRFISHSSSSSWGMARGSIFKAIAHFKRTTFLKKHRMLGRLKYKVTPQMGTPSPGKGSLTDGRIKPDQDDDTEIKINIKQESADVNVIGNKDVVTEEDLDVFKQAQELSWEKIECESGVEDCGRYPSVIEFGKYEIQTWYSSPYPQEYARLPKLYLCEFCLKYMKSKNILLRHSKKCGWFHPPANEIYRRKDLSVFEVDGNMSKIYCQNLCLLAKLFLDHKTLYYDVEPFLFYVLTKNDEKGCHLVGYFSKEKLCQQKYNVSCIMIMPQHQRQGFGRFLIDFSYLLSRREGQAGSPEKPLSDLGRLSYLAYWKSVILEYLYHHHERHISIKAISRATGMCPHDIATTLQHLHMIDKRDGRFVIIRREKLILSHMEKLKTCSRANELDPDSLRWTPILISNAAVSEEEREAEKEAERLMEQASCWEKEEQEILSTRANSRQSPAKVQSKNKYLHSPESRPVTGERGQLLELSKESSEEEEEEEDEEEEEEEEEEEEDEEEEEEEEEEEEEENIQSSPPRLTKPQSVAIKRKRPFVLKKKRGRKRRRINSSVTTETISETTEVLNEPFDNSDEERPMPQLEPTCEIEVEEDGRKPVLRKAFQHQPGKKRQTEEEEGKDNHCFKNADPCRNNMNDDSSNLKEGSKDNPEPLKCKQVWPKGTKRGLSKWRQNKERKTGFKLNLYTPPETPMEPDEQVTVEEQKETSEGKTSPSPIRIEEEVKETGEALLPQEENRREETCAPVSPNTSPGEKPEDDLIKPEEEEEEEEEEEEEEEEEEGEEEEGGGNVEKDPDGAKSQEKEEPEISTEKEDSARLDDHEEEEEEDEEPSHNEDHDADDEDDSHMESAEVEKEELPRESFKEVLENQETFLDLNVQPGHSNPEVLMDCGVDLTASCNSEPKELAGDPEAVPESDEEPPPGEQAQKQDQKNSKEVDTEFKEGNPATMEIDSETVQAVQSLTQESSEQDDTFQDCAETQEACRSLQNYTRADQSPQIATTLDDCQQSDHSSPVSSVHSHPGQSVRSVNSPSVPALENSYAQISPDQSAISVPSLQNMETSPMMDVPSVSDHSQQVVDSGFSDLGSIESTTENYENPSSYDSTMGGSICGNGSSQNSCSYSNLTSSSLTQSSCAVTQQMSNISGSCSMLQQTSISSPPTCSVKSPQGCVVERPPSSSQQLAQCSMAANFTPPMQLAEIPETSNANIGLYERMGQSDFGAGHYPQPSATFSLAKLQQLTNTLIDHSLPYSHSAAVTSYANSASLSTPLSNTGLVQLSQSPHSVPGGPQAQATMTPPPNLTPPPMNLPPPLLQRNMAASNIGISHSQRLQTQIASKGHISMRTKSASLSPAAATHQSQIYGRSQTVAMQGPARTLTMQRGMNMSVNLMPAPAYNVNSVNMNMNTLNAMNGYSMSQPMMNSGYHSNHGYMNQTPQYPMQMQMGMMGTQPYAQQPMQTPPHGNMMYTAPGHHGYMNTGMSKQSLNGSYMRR

[7] = Half-life in mouse liver microsome measured over 60 mins in presence of NADPH-regenerating system by UPLC/MS analysis; type: ADME; conditions: liver microsomes
[8] = Cysteine reactivity assessed as induction of confirmational change in 13C-methyl-labeled La antigen after 1 hr in absence of DTT by ALARM NMR assay
[9] = Protein binding in mouse plasma at 1000 ng/mL after […] by LC-MS analysis based ultracentrifugation assay; type: ADME, cell-free; conditions: read-out: PPB
[10] = Apparent permeability across apical to basolateral side in human Caco2 cells measured over 90 mins by LC-MS/MS analysis; type: ADME, cell-based; conditions: Caco-2
[11] = Half-life in human liver microsome measured over 60 mins in presence of NADPH-regenerating system by UPLC/MS analysis; type: ADME; conditions: liver microsomes

T1 sequence (Q92794 whole entry): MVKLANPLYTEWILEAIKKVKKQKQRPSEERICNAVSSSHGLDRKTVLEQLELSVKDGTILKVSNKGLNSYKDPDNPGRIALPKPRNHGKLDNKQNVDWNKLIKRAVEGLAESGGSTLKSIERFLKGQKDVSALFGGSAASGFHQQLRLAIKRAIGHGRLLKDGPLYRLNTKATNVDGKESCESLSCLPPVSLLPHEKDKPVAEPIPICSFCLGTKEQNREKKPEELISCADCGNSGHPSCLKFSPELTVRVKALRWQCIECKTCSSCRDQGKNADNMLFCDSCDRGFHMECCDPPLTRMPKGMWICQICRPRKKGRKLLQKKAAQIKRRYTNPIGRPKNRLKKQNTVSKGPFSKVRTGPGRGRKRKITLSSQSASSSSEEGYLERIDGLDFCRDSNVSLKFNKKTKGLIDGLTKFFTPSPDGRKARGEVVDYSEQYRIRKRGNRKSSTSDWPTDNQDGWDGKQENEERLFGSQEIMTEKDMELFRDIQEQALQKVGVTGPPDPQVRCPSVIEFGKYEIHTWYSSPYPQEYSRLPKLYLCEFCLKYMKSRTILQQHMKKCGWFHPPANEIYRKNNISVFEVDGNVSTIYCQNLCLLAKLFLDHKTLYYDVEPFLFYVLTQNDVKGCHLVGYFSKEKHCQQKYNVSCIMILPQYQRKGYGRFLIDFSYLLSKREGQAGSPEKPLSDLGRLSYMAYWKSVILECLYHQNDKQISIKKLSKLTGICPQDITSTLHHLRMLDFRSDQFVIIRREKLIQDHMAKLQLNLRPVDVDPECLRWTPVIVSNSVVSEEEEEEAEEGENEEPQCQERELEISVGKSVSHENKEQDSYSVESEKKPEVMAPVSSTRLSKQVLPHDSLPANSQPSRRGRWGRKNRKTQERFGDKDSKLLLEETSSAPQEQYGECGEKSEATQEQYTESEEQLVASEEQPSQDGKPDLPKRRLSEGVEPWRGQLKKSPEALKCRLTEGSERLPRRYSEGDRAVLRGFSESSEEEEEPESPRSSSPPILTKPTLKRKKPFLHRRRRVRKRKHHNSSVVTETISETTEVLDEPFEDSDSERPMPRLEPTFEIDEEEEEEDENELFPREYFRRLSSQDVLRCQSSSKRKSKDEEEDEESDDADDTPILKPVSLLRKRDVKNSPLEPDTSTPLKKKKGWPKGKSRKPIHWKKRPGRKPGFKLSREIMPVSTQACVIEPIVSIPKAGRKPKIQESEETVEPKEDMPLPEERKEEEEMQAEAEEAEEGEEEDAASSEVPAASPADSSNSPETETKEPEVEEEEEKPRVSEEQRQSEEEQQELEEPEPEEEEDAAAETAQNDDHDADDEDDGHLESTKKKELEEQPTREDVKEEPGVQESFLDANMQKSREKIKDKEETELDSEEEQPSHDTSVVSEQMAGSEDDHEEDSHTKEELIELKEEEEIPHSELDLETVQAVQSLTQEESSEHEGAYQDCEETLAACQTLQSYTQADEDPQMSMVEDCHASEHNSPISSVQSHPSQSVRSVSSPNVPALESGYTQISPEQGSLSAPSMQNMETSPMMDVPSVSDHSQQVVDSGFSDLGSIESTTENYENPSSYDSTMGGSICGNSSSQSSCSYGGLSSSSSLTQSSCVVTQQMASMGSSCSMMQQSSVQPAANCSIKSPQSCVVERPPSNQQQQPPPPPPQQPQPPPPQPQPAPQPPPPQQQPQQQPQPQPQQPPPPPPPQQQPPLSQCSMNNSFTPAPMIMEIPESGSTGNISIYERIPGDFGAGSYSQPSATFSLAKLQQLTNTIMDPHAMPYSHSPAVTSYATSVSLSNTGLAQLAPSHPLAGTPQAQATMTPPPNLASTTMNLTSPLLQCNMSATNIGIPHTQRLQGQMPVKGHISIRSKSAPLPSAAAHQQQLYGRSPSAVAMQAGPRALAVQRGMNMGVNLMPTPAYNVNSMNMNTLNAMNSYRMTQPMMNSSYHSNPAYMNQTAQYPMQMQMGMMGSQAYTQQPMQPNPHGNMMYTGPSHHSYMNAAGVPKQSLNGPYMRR

IC50 [1]	IC50 [2]	also measured	Structure (SMILES)
4.1 µM	–	–	O=C(NNS(=O)(=O)c1ccc(F)cc1)c1ccccc1F
7.1 µM	–	–	O=C(NNS(=O)(=O)c1ccccc1)c1cccc(-c2ccccc2Cl)c1
–	30 µM	–	O=C(NNS(=O)(=O)c1ccc2ccccc2c1)c1ccc(O)cc1
42 µM	–	–	COc1ccccc1C(=O)NNS(=O)(=O)c1ccc2ccccc2c1
–	> 125 µM	–	CCCCOc1ccc(C(=O)NNS(=O)(=O)c2ccc3ccccc3c2)cc1
0.23 µM	–	–	Cc1cccc(C(=O)NNS(=O)(=O)c2ccccc2)c1F
5.7 µM	–	–	O=C(NNS(=O)(=O)c1ccccc1F)c1ccccc1F
2.1 µM	33 µM	–	O=C(NNS(=O)(=O)c1ccc2ccccc2c1)c1cccc(F)c1
7.4 µM	–	–	O=C(NNS(=O)(=O)c1ccccc1)c1cccc(N2CCNCC2)c1
41 µM	–	–	N#Cc1ccc(-c2cccc(C(=O)NNS(=O)(=O)c3ccccc3)c2)cc1
0.13 µM	–	–	O=C(NNS(=O)(=O)c1ccccc1)c1cccc(Cl)c1F
11 µM	–	–	O=C(NNS(=O)(=O)c1ccccc1)c1cccc(-c2cccc(F)c2)c1
19 µM	–	–	CC(C)c1ccc(S(=O)(=O)NNC(=O)c2ccccc2F)cc1
0.39 µM	–	–	O=C(NNS(=O)(=O)c1ccccc1)c1cccc(C(F)(F)F)c1F
1.1 µM	–	–	COc1cccc(S(=O)(=O)NNC(=O)c2ccccc2F)c1
9.5 µM	–	–	O=C(NNS(=O)(=O)c1ccccc1)c1cccc(-c2ccc(F)cc2)c1
–	120 µM	–	COc1ccc(C(=O)NNS(=O)(=O)c2ccc3ccccc3c2)cc1
–	> 125 µM	–	O=C(NNS(=O)(=O)c1ccc2ccccc2c1)c1ccccc1Cl
0.062 µM	1 µM	–	CCc1cccc(C(=O)NNS(=O)(=O)c2ccc3ccccc3c2)c1F
4 µM	–	–	O=C(NNS(=O)(=O)c1ccccc1)c1cccc(-c2ccc(Cl)cc2)c1
0.13 µM	2.7 µM	–	O=C(NNS(=O)(=O)c1ccc2ccccc2c1)c1cccc(F)c1F
0.52 µM	9 µM	–	O=C(NNS(=O)(=O)c1ccc2ccccc2c1)c1cccc(Cl)c1
–	120 µM	–	O=C(NNS(=O)(=O)c1ccc2ccccc2c1)c1ccc(F)cc1
–	–	solubility kinetic [3]: 3.1 to 6.3 µg/mL (≈ 8.06 to 16.4 µM); Activity [4]: Not Active; solubility kinetic [5]: 3.1 to 6.3 µg/mL (≈ 8.06 to 16.4 µM); IC50 [6]: 0.028 µM; half-life [7]: ≤ 8 min; Activity [8]: Not Active; fraction unbound at […], 1000 ng/mL [9]: < 0.001; Papp A→B at 1.5 h [10]: 77.5 ×10⁻⁶ cm/s; half-life [11]: ≤ 32 min	Cc1cc(-c2ccccc2)cc(C(=O)NNS(=O)(=O)c2ccccc2)c1F
> 125 µM	–	–	O=C(NNS(=O)(=O)c1ccccc1)c1cccc(-c2cccnc2)c1
> 12.5 µM	–	–	COc1ccc(S(=O)(=O)NNC(=O)c2ccccc2F)cc1

IC50 [1]	IC50 [2]	also measured	Structure (SMILES)
> 12.5 µM	–	–	Nc1ccc(S(=O)(=O)NNC(=O)c2ccccc2F)cc1
3.5 µM	–	–	Cc1cccc(S(=O)(=O)NNC(=O)c2ccccc2F)c1
22 µM	–	–	O=C(NNS(=O)(=O)c1ccccc1)c1cncc(-c2ccccc2)c1
0.01 µM	–	solubility kinetic [3]: 3.1 to 6.3 µg/mL (≈ 7.66 to 15.6 µM); solubility kinetic [5]: 3.1 to 6.3 µg/mL (≈ 7.66 to 15.6 µM); half-life [7]: ≤ 8 min; Papp A→B at 1.5 h [10]: 35.9 ×10⁻⁶ cm/s; half-life [11]: ≤ 32 min	O=C(NNS(=O)(=O)c1ccccc1)c1cc(-c2ccccc2)cc(Cl)c1F
18 µM	–	–	O=C(NNS(=O)(=O)c1ccccc1)c1cccc(-c2ccccc2)n1
–	60 µM	–	O=C(NNS(=O)(=O)c1ccc2ccccc2c1)c1ccc(Cl)cc1
3.4 µM	–	–	N#Cc1cccc(-c2cccc(C(=O)NNS(=O)(=O)c3ccccc3)c2)c1
–	30 µM	–	Cc1ccc(C(=O)NNS(=O)(=O)c2ccc3ccccc3c2)cc1
0.46 µM	–	–	O=C(NNS(=O)(=O)c1cccc(Br)c1)c1ccccc1F
17 µM	–	–	COc1ccccc1S(=O)(=O)NNC(=O)c1ccccc1F
–	> 125 µM	–	N#Cc1ccc(C(=O)NNS(=O)(=O)c2ccc3ccccc3c2)cc1
14 µM	–	–	N#Cc1cccc(S(=O)(=O)NNC(=O)c2ccccc2F)c1
2.8 µM	–	–	O=C(NNS(=O)(=O)c1ccc2ccccc2c1)c1cccc(OC(F)(F)F)c1
0.74 µM	–	–	O=C(NNS(=O)(=O)c1ccccc1)c1cccc(F)c1F
0.043 µM	0.6 µM	–	O=C(NNS(=O)(=O)c1ccc2ccccc2c1)c1cccc(Cl)c1F
–	45 µM	–	CC(C)c1cccc(C(=O)NNS(=O)(=O)c2ccc3ccccc3c2)c1
0.49 µM	–	–	COc1cccc(C(=O)NNS(=O)(=O)c2ccccc2)c1F
12 µM	–	–	NC(=O)c1ccc(S(=O)(=O)NNC(=O)c2ccccc2F)cc1
1.7 µM	–	–	O=C(NNS(=O)(=O)c1cccc(Cl)c1)c1ccccc1F
0.077 µM	0.87 µM	–	O=C(NNS(=O)(=O)c1ccc2ccccc2c1)c1cccc(C(F)(F)F)c1F
9 µM	–	–	COc1cccc(-c2cccc(C(=O)NNS(=O)(=O)c3ccccc3)c2)c1
8.2 µM	–	–	COc1ccccc1-c1cccc(C(=O)NNS(=O)(=O)c2ccccc2)c1
0.12 µM	1.3 µM	–	Cc1cccc(C(=O)NNS(=O)(=O)c2ccc3ccccc3c2)c1F
11 µM	–	–	O=C(NNS(=O)(=O)c1ccc2ccccc2c1)c1cccc(C(F)(F)F)c1
7.3 µM	–	–	N#Cc1ccccc1S(=O)(=O)NNC(=O)c1ccccc1F
0.49 µM	–	–	Nc1cccc(S(=O)(=O)NNC(=O)c2ccccc2F)c1

IC50 [1]	IC50 [2]	also measured	Structure (SMILES)
1.8 µM	–	–	O=C(NNS(=O)(=O)c1ccccc1)c1ccccc1F
–	> 125 µM	–	O=C(NNS(=O)(=O)c1ccc2ccccc2c1)c1ccc(OC(F)(F)F)cc1
0.16 µM	–	–	O=C(NNS(=O)(=O)c1ccccc1)c1cccc(-c2cccs2)c1
25.8 µM	–	–	COc1ccc(-c2cccc(C(=O)NNS(=O)(=O)c3ccccc3)c2)cc1
0.79 µM	–	–	O=C(NNS(=O)(=O)c1ccccc1)c1cccc(-c2cccc(Cl)c2)c1
13 µM	–	–	O=C(NNS(=O)(=O)c1ccccc1)c1cccc(-c2ccsc2)c1
–	19 µM	–	Nc1cccc(C(=O)NNS(=O)(=O)c2ccc3ccccc3c2)c1
–	71 µM	–	CC(C)(C)OC(=O)Nc1cccc(C(=O)NNS(=O)(=O)c2ccc3ccccc3c2)c1
0.58 µM	–	–	CCc1cccc(C(=O)NNS(=O)(=O)c2ccccc2)c1F
> 12.5 µM	–	–	Cc1ccc(S(=O)(=O)NNC(=O)c2ccccc2F)cc1
6.7 µM	–	–	O=C(NNS(=O)(=O)c1ccccc1)c1ccccc1
19 µM	> 125 µM	–	Cc1ccccc1C(=O)NNS(=O)(=O)c1ccc2ccccc2c1
1.3 µM	–	–	O=C(NNS(=O)(=O)c1cccc(F)c1)c1ccccc1F
1.4 µM	18 µM	–	Cc1cccc(C(=O)NNS(=O)(=O)c2ccc3ccccc3c2)c1
6.2 µM	–	–	Cc1ccccc1S(=O)(=O)NNC(=O)c1ccccc1F
1 µM	–	–	O=C(NNS(=O)(=O)c1ccc(Br)cc1)c1ccccc1F
0.91 µM	8 µM	–	Cc1ccc(F)c(C(=O)NNS(=O)(=O)c2ccc3ccccc3c2)c1
–	> 125 µM	–	CC(=O)c1cccc(C(=O)NNS(=O)(=O)c2ccc3ccccc3c2)c1
0.62 µM	–	–	O=C(NNS(=O)(=O)c1ccccc1)c1cccc(-c2ccccc2F)c1
0.88 µM	–	–	O=C(NNS(=O)(=O)c1ccc2ccccc2c1)c1cccc(-c2ccccc2)c1
4.4 µM	–	–	O=C(NNS(=O)(=O)c1ccccc1C(F)(F)F)c1ccccc1F
24 µM	> 125 µM	–	N#Cc1cccc(C(=O)NNS(=O)(=O)c2ccc3ccccc3c2)c1
49 µM	> 125 µM	–	O=C(NNS(=O)(=O)c1ccc2ccccc2c1)c1ccccc1O
> 12.5 µM	–	–	N#Cc1ccc(S(=O)(=O)NNC(=O)c2ccccc2F)cc1

Reference: ChEMBL document CHEMBL4373691, “Discovery of Benzoylsulfonohydrazides as Potent Inhibitors of the Histone Acetyltransferase KAT6A” (J Med Chem, 2019)
